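Assay format: 96-well plates, 48-hour exposure. GI50: concentration for 50% inhibition of growth. TGI: concentration producing complete growth inhibition.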
The compounds below were run on BT-549 breast (assay: NCI-60 cell line screen, 48 h).
In the case of CC(=O)c1c(C(F)(F)F)n([O-])c2ccc(C)cc2[n+]1=O, the GI50 is reported as 2.54 µM and the TGI is reported as 8.66 µM. In the case of N/N=C1\CC(=O)NC(=O)N1, the TGI is reported as greater than 100 µM. COc1ccc(/C=N/NC(=O)Cn2c(-c3ccc(S(C)(=O)=O)cc3)nc3cc(Cl)ccc32)cc1 was tested, and the GI50 was 2.74 µM and the TGI was 48.5 µM. With COc1cc2c(c(OC)c1OC)-c1ccc(SC)c(=O)cc1[C@@H](NC1OC(CO)C(O)C(O)C1O)CC2 (stereo partly drawn) the GI50 was 0.0679 µM and the TGI was greater than 100 µM. CCOc1nc(N)nc(C)c1N=Nc1ccc(Cl)cc1 was tested, and the TGI was greater than 100 µM. CCN(Cc1ccc(Cl)s1)c1ccc(CO)c(Cl)c1 gave a GI50 of 8.19 µM and a TGI of 24.8 µM. Compound Nc1ccccc1SCc1csc(-c2ccc(Cl)cc2)n1 has a TGI of 72.1 µM. Work on CSC(=S)N/N=C(\C)c1cccc(C)n1 yielded a TGI of 57.7 µM. Compound N#Cc1c(N)[nH]c2ccc(Sc3ccccc3)cc12 has a TGI of 19.5 µM. For CCN1C(=O)N(CC)C2C1NN=c1s/c(=C\c3ccccc3Br)c(=O)n12 (stereo not drawn), the GI50 was 0.0327 µM and the TGI was 17.1 µM. In the case of O=C(O)COc1c(Cl)cc(Cl)c2cccnc12, the TGI is reported as greater than 100 µM. For CC(C)(C)c1ccc(C(=O)Nc2sc3c(c2C(N)=O)CCC(=O)C3)cc1, the GI50 was 0.356 µM and the TGI was 1.56 µM. In the case of O=C(Nc1cccc(Nc2ncc(Br)c(NCCc3cnc[nH]3)n2)c1)N1CCCC1, the GI50 is reported as 2.04 µM and the TGI is reported as 13 µM. C[C@@H]1O[C@@H](O[C@H]2CC[C@@]3(C)[C@H](CCC4[C@@H]3C(O)C[C@]3(C)[C@@H](c5ccc(=O)oc5)CC[C@]43O)C2)[C@H](O)[C@H](O)[C@H]1O (stereo partly drawn) was tested, and the GI50 was less than 0.00325 µM and the TGI was 0.00448 µM. CN1CCC(n2cnc(-c3ccc(F)cc3)c2-c2ccnc(N)n2)CC1 gave a GI50 of 15.3 µM and a TGI greater than 25 µM. In the case of COc1cc(/C=C/[N+](=O)[O-])cc(Br)c1OC, the GI50 is reported as 2.77 µM and the TGI is reported as 6.62 µM. CN(CC(N)=O)C(=O)N(CCCl)N=O was tested, and the TGI was greater than 100 µM. In the case of CC(C)=CCC/C(C)=C/CC/C(C)=C/CC/C=C(\C)CC/C=C(\C)CCC(=O)Nc1ccn(C2OC(CO)C(O)C2(F)F)c(=O)n1 (stereo not drawn), the TGI is reported as 0.472 µM. CC(C)(C)CN1CCn2c(nc3c(N)nccc32)S1 gave a GI50 of 19.1 µM and a TGI of 66.1 µM. With Cc1c(C2=C(c3cn(C)c4ccccc34)C(=O)NC2=O)c2ccccc2n1C the GI50 was 2.09 µM and the TGI was greater than 25 µM. CC1(C)CCC[C@]2(C)[C@@H](C=O)C(C=O)=CC[C@@H]12 gave a TGI of 74.2 µM.

These compounds were tested on HCT-15 colon (assay: NCI-60 cell line screen, 48 h).
CC(=O)c1c(C(F)(F)F)n([O-])c2ccc(C)cc2[n+]1=O gave a GI50 of 2.45 µM and a TGI of 39.4 µM. N/N=C1\CC(=O)NC(=O)N1 was tested, and the TGI was greater than 100 µM. COc1ccc(/C=N/NC(=O)Cn2c(-c3ccc(S(C)(=O)=O)cc3)nc3cc(Cl)ccc32)cc1 showed a GI50 of 0.653 µM and a TGI greater than 50 µM. COc1cc2c(c(OC)c1OC)-c1ccc(SC)c(=O)cc1[C@@H](NC1OC(CO)C(O)C(O)C1O)CC2 (stereo partly drawn) gave a GI50 of 0.0374 µM and a TGI greater than 100 µM. CCOc1nc(N)nc(C)c1N=Nc1ccc(Cl)cc1 gave a TGI greater than 100 µM. In the case of CCN(Cc1ccc(Cl)s1)c1ccc(CO)c(Cl)c1, the GI50 is reported as 4.2 µM and the TGI is reported as greater than 50.6 µM. Nc1ccccc1SCc1csc(-c2ccc(Cl)cc2)n1 gave a TGI greater than 82.1 µM. Compound CSC(=S)N/N=C(\C)c1cccc(C)n1 has a TGI of 48.1 µM. For N#Cc1c(N)[nH]c2ccc(Sc3ccccc3)cc12, the TGI was 14.9 µM. Work on CCN1C(=O)N(CC)C2C1NN=c1s/c(=C\c3ccccc3Br)c(=O)n12 (stereo not drawn) yielded a GI50 of 0.0303 µM and a TGI of 12.6 µM. For O=C(O)COc1c(Cl)cc(Cl)c2cccnc12, the TGI was greater than 100 µM. Compound CC(C)(C)c1ccc(C(=O)Nc2sc3c(c2C(N)=O)CCC(=O)C3)cc1 has a GI50 of 0.408 µM and a TGI of 2.38 µM. With O=C(Nc1cccc(Nc2ncc(Br)c(NCCc3cnc[nH]3)n2)c1)N1CCCC1 the GI50 was 21.7 µM and the TGI was greater than 67 µM. C[C@@H]1O[C@@H](O[C@H]2CC[C@@]3(C)[C@H](CCC4[C@@H]3C(O)C[C@]3(C)[C@@H](c5ccc(=O)oc5)CC[C@]43O)C2)[C@H](O)[C@H](O)[C@H]1O (stereo partly drawn) showed a GI50 of 0.00786 µM and a TGI of 0.0209 µM. CN1CCC(n2cnc(-c3ccc(F)cc3)c2-c2ccnc(N)n2)CC1 showed a GI50 of 10.5 µM and a TGI greater than 25 µM. Work on COc1cc(/C=C/[N+](=O)[O-])cc(Br)c1OC yielded a GI50 of 2.68 µM and a TGI of 8.98 µM. In the case of CN(CC(N)=O)C(=O)N(CCCl)N=O, the TGI is reported as greater than 100 µM. CC(C)=CCC/C(C)=C/CC/C(C)=C/CC/C=C(\C)CC/C=C(\C)CCC(=O)Nc1ccn(C2OC(CO)C(O)C2(F)F)c(=O)n1 (stereo not drawn) was tested, and the GI50 was 0.691 µM and the TGI was 28 µM. CC(C)(C)CN1CCn2c(nc3c(N)nccc32)S1 was tested, and the GI50 was 3.92 µM and the TGI was 26.2 µM. In the case of Cc1c(C2=C(c3cn(C)c4ccccc34)C(=O)NC2=O)c2ccccc2n1C, the GI50 is reported as 1.3 µM and the TGI is reported as greater than 25 µM. In the case of CC1(C)CCC[C@]2(C)[C@@H](C=O)C(C=O)=CC[C@@H]12, the TGI is reported as 30.7 µM.

The compounds below were run on HL-60(TB) leukemia (assay: NCI-60 cell line screen, 48 h).
Work on CC(=O)c1c(C(F)(F)F)n([O-])c2ccc(C)cc2[n+]1=O yielded a GI50 of 1.92 µM and a TGI of 10.5 µM. N/N=C1\CC(=O)NC(=O)N1 was tested, and the TGI was greater than 100 µM. COc1ccc(/C=N/NC(=O)Cn2c(-c3ccc(S(C)(=O)=O)cc3)nc3cc(Cl)ccc32)cc1 was tested, and the GI50 was 0.446 µM and the TGI was 7.3 µM. COc1cc2c(c(OC)c1OC)-c1ccc(SC)c(=O)cc1[C@@H](NC1OC(CO)C(O)C(O)C1O)CC2 (stereo partly drawn) was tested, and the GI50 was 0.0227 µM and the TGI was 0.0666 µM. For CCOc1nc(N)nc(C)c1N=Nc1ccc(Cl)cc1, the TGI was greater than 100 µM. Compound CCN(Cc1ccc(Cl)s1)c1ccc(CO)c(Cl)c1 has a GI50 of 3.11 µM and a TGI of 26.2 µM. Work on Nc1ccccc1SCc1csc(-c2ccc(Cl)cc2)n1 yielded a TGI of 23.9 µM. CSC(=S)N/N=C(\C)c1cccc(C)n1 gave a TGI of 3.07 µM. N#Cc1c(N)[nH]c2ccc(Sc3ccccc3)cc12 showed a TGI of 1.92 µM. For CCN1C(=O)N(CC)C2C1NN=c1s/c(=C\c3ccccc3Br)c(=O)n12 (stereo not drawn), the GI50 was 0.0241 µM and the TGI was 0.0639 µM. O=C(O)COc1c(Cl)cc(Cl)c2cccnc12 gave a TGI greater than 100 µM.

From PubChem BioAssay (NCI)
